Data on one compound can be found in patent publication US20180153890A1, “PHARMACEUTICAL COMPOSITIONS AND USE THEREOF” (Hutchison MediPharma Limited, priority 2015, published 2018).

One data set concerns NCI-H716 tumor. Description: Anti-tumor efficacy in NCI-H716 subcutaneous xenograft model. It is filed as in vivo. As to conditions: three weeks. The method, then: NCI-H716 cell line was purchased from ATCC (CCL-251™) and incubated in the medium of RPM11640 (Rosewell Park Memorial Institute 1640) plus 10% fetal bovine serum (FBS) at 37° C. in a 5% CO2 incubator.
BALB/c athymic male mice (6-8 weeks) were purchased from Shanghai SLAC Laboratory Animal Co. Ltd. The mice were housed under specific pathogen free conditions. They were maintained in a 12 hour light and dark cycle with the temperature at 20-25° C. and humidity of 40%-70% and given free access to Co^60 radiated-sterile diet and autoclaved sterile water. There were four mice in each cage.
Compound A was dissolved in 0.5% CMC-Na, vortexed for 1-3 min, sonicated for 15 min and stored at 4° C. Compound A was formulated at 2.0, 4.0 and 8.0 mg/mL and prepared once a week.
When NCI-H716 cells reached about 80-90% in confluence, they were detached by Trypsin-EDTA and collected after centrifugation, then suspended in serum free-medium. Each mouse was injected subcutaneously in the right lateral flank with 0.2 mL of cells suspension containing 5×10^6 tumor cells with Martrigel (1:1).
When the NCI-H716 tumors grew to around average 300 mm^3, the tumor bearing mice were randomized to vehicle and Compound A treated groups. Compound A in 0.5% CMC-Na as prepared above was orally administered to mice at 20, 40 and 80 mg/kg twice daily for three weeks, and the vehicle group received 0.5% CMC-Na orally twice daily. The dosing volume was 10 mL/kg body weight. Tumor volume (TV) was measured two times per week by caliper for length and width, and calculated using the formula: TV=width^2×length/2.
At the end of the study, tumors were harvested and tumor growth inhibition (TGI) and tumor weight inhibition (IRTW) were calculated by the following equations, where V0 were the data at day 0 (D0) (starting day) and Vt were the data at measurement day t (Dt):
TGI=[1−(Vt−V0)drug treated/(Vt−V0)vehicle]×100%
IRTW(%)=[(TWvehicle−TWtreatment)/TWvehicle]×100%
Student's t-test was used for in comparison with vehicle control. Differences were considered statistically significant at P<0.05.

Another data set has as its system NCI-H716 cells. The data set is described as follows: Cell viability assay on NCI-H716 (CCK-8). It counts as cell-based. To be noted: Homo sapiens, 72 h incubation, read-out: IC50 on inhibition of NCI-H716 cells viability. The method, then: NCI-H716: human cecum colorectal adenocarcinoma cell line, purchased from ATCC (American Type Culture Collection).
Culture medium: RPMI 1640 containing 10% FBS.
NCI-H716 cells were diluted with RPMI-1640 medium containing 10% FBS. 90 μL of the diluted cells were added into each well of a 96-well plate so that each well contained 1×10^4 cells. The cells were subsequently incubated at 37° C., 5% CO2 overnight.
Test compound dissolved in DMSO was diluted to 30, 10, 3.33, 1.11, 0.37, 0.12, 0.04, 0.01 μM with serum free RPMI-1640 medium containing 5% DMSO. Then 10 μL of the diluted compound was added into the above 90 μL cell cultures (final concentration of DMSO in the reaction mixture should be 0.5%), and incubated at 37° C., 5% CO2 for 72 h.
10 μL of CCK-8 solution was added into cells, and incubated at 37° C., 5% CO2 for additional 1 h. The optical density of each well was measured at 450 nm and 630 nm, respectively, by Labsystems Multiskan K3.
[formula] • [OD compound]450-630: the optical density of well containing cells with compound treatment; • [OD cell]450-630: the optical density of wells containing cells without compound treatment; • [OD background]450-630: the optical density of wells containing culture medium only.
IC50: IC50 is calculated based on the inhibition curve fitted by XL-Fit 2.0 software.

Setting [1] is: 20 mg/kg bid oral, end of study.

pIC50: −log10 of the molar value. Marks after values point to notes of the source that are not given here.

`Cc1cc2cc(Oc3ccnc(Nc4cccc(CS(=O)(=O)NCCN(C)C)c4)n3)ccc2[nH]1` [Compound A, N-(2-(dimethylamino)ethyl)-1-(3-((4-((2-methyl-1H-indol-5-yl)oxy)pyrimidin-2-yl)amino)phenyl)-methanesulfonamide]: in the data set with NCI-H716 tumor (setting [1]), the “IRTW (tumor weight inhibition)” value is recorded as 49.9* %. The “TGI (tumor growth inhibition)” value in the data set with NCI-H716 tumor (setting [1]) worked out at 57.1%; in the data set with NCI-H716 tumor (40 mg/kg bid oral, end of study) it was 73.9%; in the data set with NCI-H716 tumor (80 mg/kg bid oral, end of study), 80.0%. Besides, the “clinical signs of toxicity” value in the data set with NCI-H716 tumor (treated mice, 20, 40 and 80 mg/kg bid oral) is recorded as “No clinical signs of toxicity were observed”. In addition, the pIC50 with NCI-H716 cells was 6.80.
